Assay results as given in ChEMBL document CHEMBL4680206, “Novel pyrrolidinone derivative lacks claimed histamine H receptor stimulation in receptor binding and functional studies” (Eur J Med Chem, 2020).
One block for each molecule: values may come before it. Activity calls are given as the source filed them. No cut-off for these calls is given here.

Columns and labels:
Histamine H3 receptor [1] = target: T1, Histamine H3 receptor (Homo sapiens, UniProt Q9Y5N1); assay: Displacement of [3H]Nalpha-methylhistamine from recombinant human histamine H3 receptor stably transfected in HEK-293T cells membrane incubated for 90 mins by scintillation counting method; assay type: cell membranes, Cell membrane
Histamine H3 receptor [2] = target: T1, Histamine H3 receptor; assay: Antagonist activity at human H3 receptor expressed in HEK293 cells assessed as reversion of (R)alpha-MeHA induced activity preincubated for 30 mins followed by [35S]-GTPgammaS addition and measured after 30 mins by liquid scintillation counting method; assay type: functional, cell-based; settings: filed as antagonist, time 60.0 min
Histamine H3 receptor [3] = target: T1, Histamine H3 receptor; assay: Agonist activity at human H3 receptor expressed in HEK293 cells preincubated for 30 mins followed by [35S]-GTPgammaS addition and measured after 30 mins by liquid scintillation counting method; assay type: functional, cell-based; settings: time 60.0 min
Histamine H3 receptor [4] = target: T1, Histamine H3 receptor; assay: Partial agonist activity at human H3 receptor stably transfected in CHO-DUKX cells assessed as […] by measuring reduction in forskolin level by HitHunter-cAMP assay relative to histamine; assay type: functional, cell-based
Histamine H3 receptor [5] = target: T1, Histamine H3 receptor; assay: Antagonist activity at human H3 receptor expressed in CHO cells assessed as decrease in cAMP accumulation by measuring increase in forskolin level incubated for 4 hrs in presence of histamine by CRE/MRE-luciferase reporter gene assay; assay type: functional, cell-based
Histamine H3 receptor [6] = target: T1, Histamine H3 receptor; assay: Displacement of bodilisant from recombinant human histamine H3 receptor stably transfected in HEK-293T cells membrane at 1 to 10 uM incubated for 60 mins by fluorescence-polarization assay; assay type: cell membranes; settings: Cell membrane, dose 1-10 µM
Histamine H3 receptor [7] = target: T1, Histamine H3 receptor; assay: Agonist activity at human H3 receptor expressed in CHO cells assessed as […] by measuring reduction in forskolin level incubated for 4 hrs by CRE/MRE-luciferase reporter gene assay; assay type: functional, cell-based

T1 sequence (Q9Y5N1 whole entry): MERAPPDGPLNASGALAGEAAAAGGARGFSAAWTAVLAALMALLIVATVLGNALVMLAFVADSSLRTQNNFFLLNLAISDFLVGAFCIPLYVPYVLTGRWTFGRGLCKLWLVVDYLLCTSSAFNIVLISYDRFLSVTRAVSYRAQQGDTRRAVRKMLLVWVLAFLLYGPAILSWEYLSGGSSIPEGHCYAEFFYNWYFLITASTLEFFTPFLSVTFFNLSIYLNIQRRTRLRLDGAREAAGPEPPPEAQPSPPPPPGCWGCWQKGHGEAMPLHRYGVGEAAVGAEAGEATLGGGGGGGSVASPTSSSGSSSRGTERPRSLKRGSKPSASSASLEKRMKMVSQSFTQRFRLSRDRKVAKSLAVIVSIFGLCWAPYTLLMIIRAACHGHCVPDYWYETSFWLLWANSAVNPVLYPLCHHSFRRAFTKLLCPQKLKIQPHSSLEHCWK

Kd (Histamine H3 receptor [1]): 1.9 nM
Compound: CC1=CC(C)=[N+]2C1=C(c1ccc(OCCCN3CCCCC3)cc1)c1c(C)cc(C)n1[B-]2(F)F

Compound: COc1cc(NC2(c3cccc(Cl)c3)C(=O)N(C(C)(C)C)C(=O)C2=Cc2ccccc2)cc(OC)c1OC (centres undefined)
Activity (Histamine H3 receptor [2]): Active
Activity (Histamine H3 receptor [3]): inactive
Ratio (Histamine H3 receptor [4]): 0.14
Activity (Histamine H3 receptor [5]): inactive
Ki (Histamine H3 receptor [1]): 3200 nM
Activity (Histamine H3 receptor [6]): inactive

Activity (Histamine H3 receptor [6]; filed as antagonist): Active
Compound: Clc1ccc(CCCOCCCN2CCCCC2)cc1

EC50 (Histamine H3 receptor [7]): 2.9 nM
Compound: N=C(N)SCCc1cnc[nH]1 [IMETIT]
